We go through 9 compounds from patent US20220016215A1, “GIP RECEPTOR AGONIST PEPTIDE COMPOUNDS AND USES THEREOF” (TAKEDA PHAARMACEUTICAL COMPANY LIMITED, priority 2018, published 2022).

The term EC50 denotes the concentration that produces a half-maximal response.

The target in one assay is T1, human GIPR (Homo sapiens, UniProt P48546).
T1 construct: expressed in transfected cells
T1 sequence (P48546 22-466): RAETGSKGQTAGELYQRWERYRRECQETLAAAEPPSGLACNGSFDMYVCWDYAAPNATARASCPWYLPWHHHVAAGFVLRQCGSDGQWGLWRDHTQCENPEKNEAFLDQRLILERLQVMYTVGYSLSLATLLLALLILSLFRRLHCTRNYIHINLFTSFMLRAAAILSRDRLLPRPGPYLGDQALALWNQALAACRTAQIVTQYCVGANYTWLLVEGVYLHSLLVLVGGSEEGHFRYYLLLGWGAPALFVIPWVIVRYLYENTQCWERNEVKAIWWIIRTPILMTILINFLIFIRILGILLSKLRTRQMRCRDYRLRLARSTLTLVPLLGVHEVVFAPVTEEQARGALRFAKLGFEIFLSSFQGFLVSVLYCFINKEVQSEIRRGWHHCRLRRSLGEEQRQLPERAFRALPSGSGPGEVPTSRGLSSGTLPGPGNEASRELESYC
Description: Agonist activity on human GIPR, CRE-luciferase reporter assay (increase in intracellular cAMP as indicator). Conditions: for Selectivity Ratio (B/A): GLP1R EC50 / GIPR EC50. Type of assay: cell-based. From the text: The human GIPR gene having an identical sequence to Genebank Accession No. U39231 is cloned into a pMSRα-neo vector to prepare hGIPR/pMSRα-neo.
(2) Construction of Reporter Plasmid Expressing Cell
Luciferase reporter gene with a cAMP-responsive sequence located upstream is transferred to a CHO-K1 cell to construct a CRE-LUC/CHO-K1 cell.
(4) Transfer of Human GIPR Gene to CRE-LUC/CHO-K1 Cell and Obtaining of Expressing Cell
The plasmid hGIPR/pMSRα-neo obtained in (1) is transferred to the CRE-LUC/CHO-K1 cell obtained in (2) to obtain a transformant. Subsequently, the cell line inducing the luciferase expression, hGIPR/CRE-LUC/CHO-K1 cell, is selected from the obtained transformant by adding GIP.
25 μL each of the hGIPR/CRE-LUC/CHO-K1 cell is inoculated in a 384-well white plate (Corning) in such a way as to provide 5×10^3 cells/well and may be cultured in a HamF12 medium containing 10% fetal bovine serum, 100 U/mL penicillin, and 100 μg/mL streptomycin in a CO2 incubator at 37° C. overnight. 5 μL of a medium containing a test compound is added to the cells and incubated for 4 hours at the indicated concentration in a CO2 incubator at 37° C. Steady-Glo (Promega) is added in amounts of 30 μL and shaken under light shielding. Twenty minutes later, luciferase activity is measured using a plate reader Envision (PerkinElmer). The GIPR agonist activity is calculated with increase in intracellular cAMP concentration as the indicator when the luciferase activity in the presence of 10 nM of GIP was 100% and the luciferase activity in the case of adding DMSO instead of the test compound was 0%.

In assay [1] the test system is morphine (0.6 mg/kg, s.c.)-induced emesis in ferrets. Description: Morphine-induced acute emetic model in male ferrets. Type of assay: in vivo, ferret. The method, then: Example 6—In-Vivo Effect of GIP Receptor Agonist Peptides on Emesis in Morphine Induced Emesis Model in Live Male Ferrets
Effect of subcutaneously administered GIP receptor agonist peptide in morphine-induced acute emetic model.
To evaluate the antiemetic effect, the GIP receptor agonist peptides other than natural human GIP were subcutaneously administered into male ferrets 30 minutes before morphine administration. […]. Up to 60 minutes after morphine administration, the condition of the ferrets was monitored to record the frequencies and time points of abdominal contraction motions, vomiting behaviors, licking with the tongue, and fidgety behavior occurring
Effects of Subcutaneously Administered GIP Receptor Agonist Peptides in Morphine-Induced Acute Emetic Model
30 nmol/kg of Compounds 3 and 5 were dissolved with a vehicle (0.09 w/v % tween 80/10% DMSO/saline), respectively, to prepare test solutions. […] of the test solutions and the vehicle were subcutaneously administered to ferrets (4 in each group), respectively. At the time of each of 4 hours, after administration, 0.6 mg/kg of morphine was subcutaneously administered. […] See results in Tables 6, 7 and 8.
(§1) 10 nmol/kg of each compound dissolved with a vehicle (0.09 w/v % tween 80/10% DMSO/saline) respectively, to prepare test solutions. […] of the test solutions and the vehicle were subcutaneously administered to ferrets (4 in each group), respectively. At the time of each of 4 hours, or 120 hours after administration, 0.6 mg/kg of morphine was subcutaneously administered. Up to 360 minutes after morphine administration, the condition of the ferrets was monitored to record the frequencies and time points of abdominal contraction motions, vomiting behaviors, licking with the tongue, and fidgety behavior occurring.
as §1, with “30 nmol/kg” for “10 nmol/kg”, “80/10% DMSO/saline),respectively,” for “80/10% DMSO/saline) respectively,”

[2] abbreviates: ferrets, morphine 0.6 mg/kg s.c. 0.5 h after drug, 106-[…] s.c. (30 nmol/kg).
Setting [3] is: ferrets, morphine 0.6 mg/kg s.c. 0.5 h after drug, 106-[…] s.c. (30 nmol/kg), non-responders counted as 30 min.

Marks after values point to notes of the source that are not given here.

With “YD-AlaEGTFISDYSIAMD(Lys-(OEG-gGlu)2-Oda)IHQQDFVNWLLAQKGKICNDWKHNIIQ-NH2 [Compound 13]”, the “Selectivity Ratio (B/A)” value on human GIPR is on record as 21,369.

Take `CC[C@H](C)[C@H](NC(=O)[C@H](CO)NC(=O)[C@H](Cc1ccc(O)cc1)NC(=O)[C@H](CC(=O)O)NC(=O)[C@H](CO)NC(=O)[C@@H](NC(=O)[C@H](Cc1ccccc1)NC(=O)[C@@H](NC(=O)CNC(=O)[C@H](CCC(=O)O)NC(=O)[C@@H](C)NC(=O)[C@@H](N)Cc1ccc(O)cc1)[C@@H](C)O)[C@@H](C)CC)C(=O)N[C@@H](C)C(=O)N[C@@H](CCSC)C(=O)N[C@@H](CC(=O)O)C(=O)N[C@@H](CCCCN)C(=O)N[C@H](C(=O)N[C@@H](Cc1c[nH]cn1)C(=O)N[C@@H](CCC(N)=O)C(=O)N[C@@H](CCC(N)=O)C(=O)N[C@@H](CC(=O)O)C(=O)N[C@@H](Cc1ccccc1)C(=O)N[C@H](C(=O)N[C@@H](CC(N)=O)C(=O)N[C@@H](Cc1c[nH]c2ccccc12)C(=O)N[C@@H](CC(C)C)C(=O)N[C@@H](CC(C)C)C(=O)N[C@@H](C)C(=O)N[C@@H](CCC(N)=O)C(=O)N[C@@H](CCCCN)C(=O)NCC(=O)N[C@@H](CCCCN)C(=O)N[C@@H](CCCCN)C(=O)N[C@@H](CC(N)=O)C(=O)N[C@@H](CC(=O)O)C(=O)N[C@@H](Cc1c[nH]c2ccccc12)C(=O)N[C@@H](CCCCN)C(=O)N[C@@H](Cc1c[nH]cn1)C(=O)N[C@@H](CC(N)=O)C(=O)N[C@H](C(=O)N[C@H](C(=O)N[C@@H](CCC(N)=O)C(N)=O)[C@@H](C)CC)[C@@H](C)CC)C(C)C)[C@@H](C)CC` [Compound 14]: the “Selectivity Ratio (B/A)” value at human GIPR was >100,000. Besides, the EC50 on human GIPR (hGIPR/CRE-LUC/CHO-K1 cells, 4 h incubation, read-out: GIPR EC50 nM (A)) is 0.001 nM.

For `CC[C@H](C)[C@H](NC(=O)[C@H](CO)NC(=O)[C@H](Cc1ccc(O)cc1)NC(=O)[C@H](CC(=O)O)NC(=O)[C@H](CO)NC(=O)[C@@H](NC(=O)[C@H](Cc1ccccc1)NC(=O)[C@@H](NC(=O)CNC(=O)[C@H](CCC(=O)O)NC(=O)[C@H](C)NC(=O)[C@H](Cc1ccc(O)cc1)NC(C)=O)[C@@H](C)O)[C@@H](C)CC)C(=O)N[C@@H](C)C(=O)N[C@@H](CCSC)C(=O)N[C@@H](CC(=O)O)C(=O)N[C@@H](CCCCN)C(=O)N[C@H](C(=O)N[C@@H](Cc1c[nH]cn1)C(=O)N[C@@H](CCC(N)=O)C(=O)N[C@@H](CCC(N)=O)C(=O)N[C@@H](CC(=O)O)C(=O)N[C@@H](Cc1ccccc1)C(=O)N[C@H](C(=O)N[C@@H](CC(N)=O)C(=O)N[C@@H](Cc1c[nH]c2ccccc12)C(=O)N[C@@H](CC(C)C)C(=O)N[C@@H](CC(C)C)C(=O)N[C@@H](C)C(=O)N[C@@H](CCC(N)=O)C(=O)N[C@@H](CCCCN)C(=O)NCC(=O)N[C@@H](CCCCN)C(=O)N[C@@H](CCCCN)C(=O)N[C@@H](CC(N)=O)C(=O)N[C@@H](CC(=O)O)C(=O)N[C@@H](Cc1c[nH]c2ccccc12)C(=O)N[C@@H](CCCCN)C(=O)N[C@@H](Cc1c[nH]cn1)C(=O)N[C@@H](CC(N)=O)C(=O)N[C@H](C(=O)N[C@H](C(=O)N[C@@H](CCC(N)=O)C(=O)O)[C@@H](C)CC)[C@@H](C)CC)C(C)C)[C@@H](C)CC` [Compound 1], the “Selectivity Ratio (B/A)” value on human GIPR was 30,200. Also, in assay [1] (setting [2]), the “Emesis: Duration” value was 0.0 ± 0.0 min, the “Emesis: Frequency” value was 0.0 ± 0.0, the “Emesis: No. of animals (responder/used)” value was 0/4 # and the “Fidget: Duration” value was 0.0 ± 0.0 min. Also, in assay [1] (setting [2]), the “Fidget: Frequency” value was 0.0 ± 0.0, the “Fidget: No. of animals (responder/used)” value was 0/4, the “Licking: Duration” value turned out to be 0.0 ± 0.0 min and the “Licking: Frequency” value is given as 0.0 ± 0.0. In assay [1] (setting [2]), the “Licking: No. of animals (responder/used)” value was 0/4 #, the “Retching: Duration” value is 0.0 ± 0.0 min, the “Retching: Frequency” value was 0.0 ± 0.0 and the “Retching: No. of animals (responder/used)” value was 0/4 #. In assay [1] (setting [2]), the “Vomiting: Duration” value stood at 0.0 ± 0.0 min, the “Vomiting: Frequency” value is reported as 0.0 ± 0.0 and the “Vomiting: No. of animals (responder/used)” value is 0/4. Also, in assay [1] (setting [3]), the “Emesis: Latency” value is given as 30.0 ± 0.0 min, the “Fidget: Latency” value turned out to be 30.0 ± 0.0 min, the “Licking: Latency” value is reported as 30.0 ± 0.0 min and the “Retching: Latency” value worked out at 30.0 ± 0.0 min. Besides, the “Vomiting: Latency” value in assay [1] (setting [3]) is listed as 30.0 ± 0.0 min. In assay [1] (male ferrets, 30 nmol/kg s.c. 30 minutes before morphine 0.6 mg/kg s.c.), the “Attenuation of morphine-induced emesis (in words)” value is on record as “completely attenuated”. The “Comment: Anti-Emetic Activity (inhibition) on morphine-induced emesis” value in assay [1] (male ferrets, summary of the morphine experiments) came to 100% inhibition.

With “YAibEGTFISDYSIELEK(Lys-(ethylene glycol)2-C15 diacid)AQRAFVEWLLAQGPSSGAPPPS-NH2 [Compound 23]”, at human GIPR, the “Selectivity Ratio (B/A)” value came to 3364.

Take “YAibEGTFISDYSIALDKIHQQDFVNWLLAQ(Lys-(ethylene glycol)2-C15 diacid)G-OH [Compound 31]”: on human GIPR, the “Selectivity Ratio (B/A)” value is listed as 83090.

“YAibEGTFISDYSIALDKIHQQ(Lys-(ethylene glycol)2-C15 diacid)FVNWLLAQRG-OH [Compound 24]”: the “Selectivity Ratio (B/A)” value at human GIPR is 82783.

“YAibEGTFISDYSIALDKIHQQ(Lys-(ethylene glycol)2-C15 diacid)FVNWLLAQRPSSGAPPPS-NH2 [Compound 29]”: the “Selectivity Ratio (B/A)” value at human GIPR was >100,000.

As for “YAibEGTFISDYS(Lys-(ethylene glycol)2-C15 diacid)ALDKIHQQDFVNWLLAQRG-OH [Compound 32]”, the “Selectivity Ratio (B/A)” value on human GIPR came to 83090.

For the compound “YAibEGTFISDYSIALDKIHQQ(Lys-(ethylene glycol)2-C15 diacid)FVNWLLAQR-NH2 [Compound 28]”, the “Selectivity Ratio (B/A)” value at human GIPR was >100,000.
